Laboratory results: ChEMBL document CHEMBL1201862, “PubChem BioAssay data set” (2004)
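Five concentrations, 48 hours, 96-well plates. The concentration for 50% growth inhibition is given as GI50.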 Calls of active or inactive are those of the source. Rule as the data show it: active = GI50 up to about 1.1 µM and inactive = higher.

Tests used:
Experiment in all cases: inhibition of tumour cell growth, NCI panel, 48 h
CAKI-1 = tested on: CAKI-1
DLD-1 = tested on: DLD-1
HCC 2998 = tested on: HCC 2998
HT-29 = tested on: HT-29
LOX IMVI = tested on: LOX IMVI
M19-MEL = tested on: M19-MEL
MOLT-4 = tested on: MOLT-4
NCI-H226 = tested on: NCI-H226
OVCAR-4 = tested on: OVCAR-4
RXF 393 = tested on: RXF 393
SF-539 = tested on: SF-539
SNB-75 = tested on: SNB-75
XF498 = tested on: XF498
DU-145 = tested on: DU-145
Hs-578T = tested on: Hs-578T
MDA-MB-435 = tested on: MDA-MB-435
MDA-N = tested on: MDA-N
PC-3 = tested on: PC-3
T47D = tested on: T47D
BT-549 = tested on: BT-549

Row | Compound | GI50 (CAKI-1) | GI50 (DLD-1) | GI50 (HCC 2998) | GI50 (HT-29) | GI50 (LOX IMVI) | GI50 (M19-MEL) | GI50 (MOLT-4) | GI50 (NCI-H226) | GI50 (OVCAR-4) | GI50 (RXF 393) | GI50 (SF-539) | GI50 (SNB-75) | GI50 (XF498) | GI50 (DU-145) | GI50 (Hs-578T) | GI50 (MDA-MB-435) | GI50 (MDA-N) | GI50 (PC-3) | GI50 (T47D) | GI50 (BT-549)
1 | CCCC[S+]([O-])CC(CO)NC(=O)/C=C/c1c(C)[nH]c(=O)[nH]c1=O (configuration not stated) | 18.9 µM (inactive) | 12.1 µM (inactive) | 8.28 µM (inactive) | 14.8 µM (inactive) | 7.62 µM (inactive) | 2.22 µM (inactive) | 8.3 µM (inactive) | 11.7 µM (inactive) | 0.203 µM (active) | 11 µM (inactive) | 7.38 µM (inactive) | 6.85 µM (inactive) | 4.18 µM (inactive) |  |  |  |  |  |  | 
2 | CC1(C)OCC(CO)(CO)CO1 |  |  | > 100 µM (inactive) | > 100 µM (inactive) | > 100 µM (inactive) |  | > 100 µM (inactive) | > 100 µM (inactive) | > 100 µM (inactive) | > 100 µM (inactive) |  | > 100 µM (inactive) |  | > 100 µM (inactive) | > 100 µM (inactive) | > 100 µM (inactive) | > 100 µM (inactive) | > 100 µM (inactive) | > 100 µM (inactive) | 
3 | COc1cc([N+](=O)[O-])ccc1N1C(=O)C2c3[nH]c4ccccc4c3C3CCC(C(C)(C)C)CC3C2C1=O (configuration not stated) | 2.04 µM (inactive) |  | > 100 µM (inactive) | 88.9 µM (inactive) | 18.5 µM (inactive) |  | > 100 µM (inactive) | > 100 µM (inactive) | 17.2 µM (inactive) |  | 62.8 µM (inactive) |  |  | > 100 µM (inactive) | 5.6 µM (inactive) | 17.4 µM (inactive) | 40.6 µM (inactive) | 38.6 µM (inactive) |  | 32 µM (inactive)
4 | CC1(C)N=C(/C(Cl)=[N+](/[O-])C(=O)c2ccc(Cl)cc2)C(C)(C)N1O | 19.2 µM (inactive) |  | 25.9 µM (inactive) | 22.1 µM (inactive) | 6.76 µM (inactive) |  | > 10 µM (inactive) | 25.9 µM (inactive) | 26.4 µM (inactive) | 22 µM (inactive) | 21.3 µM (inactive) |  |  | > 100 µM (inactive) | 36.2 µM (inactive) | 22.3 µM (inactive) | 17.1 µM (inactive) | 21.3 µM (inactive) | 38.3 µM (inactive) | 
5 | O=C(Nc1cccc([N+](=O)[O-])c1)C(=O)C(C(=O)c1ccccc1F)C1OC(=O)C2C=CC=CC21 (configuration not stated) | 59.2 µM (inactive) | 43.4 µM (inactive) | 36.1 µM (inactive) | 41.6 µM (inactive) | 21.1 µM (inactive) | 31.6 µM (inactive) | 32 µM (inactive) | 13.4 µM (inactive) | 47.2 µM (inactive) | 18.5 µM (inactive) | 24 µM (inactive) | 28.7 µM (inactive) | 40.3 µM (inactive) |  |  |  |  |  |  | 
6 | COc1cc(/N=N\c2cccc(S(=O)(=O)O)c2)ccc1/N=N\c1ccc(/C=C/c2ccc(-n3on3-c3ccc(/C=C/c4ccc(/N=N/c5ccc(/N=N\c6cccc(S(=O)(=O)O)c6)cc5OC)cc4S(=O)(=O)O)c(S(=O)(=O)O)c3)cc2S(=O)(=O)O)c(S(=O)(=O)O)c1 |  | > 100 µM (inactive) | > 100 µM (inactive) | > 100 µM (inactive) | > 100 µM (inactive) | > 100 µM (inactive) | > 100 µM (inactive) | > 100 µM (inactive) | > 100 µM (inactive) | > 100 µM (inactive) | > 100 µM (inactive) | 91.8 µM (inactive) | > 83 µM (inactive) |  |  |  |  |  |  | 
7 | O=Nn1c2ccccc2c2cc([N+](=O)[O-])ccc21 | 16.4 µM (inactive) |  | 33 µM (inactive) | 18 µM (inactive) | 14.7 µM (inactive) |  | 14.1 µM (inactive) |  | 16.8 µM (inactive) | 16.4 µM (inactive) | 20.3 µM (inactive) | 7.23 µM (inactive) |  | 14.3 µM (inactive) | 31.7 µM (inactive) | 17.1 µM (inactive) | 17.2 µM (inactive) | 18.4 µM (inactive) | 31.1 µM (inactive) | 17.2 µM (inactive)
8 | O=C(Nc1ccc(Cl)cc1)c1cc2cc(/N=N/c3ccccc3Cl)ccc2oc1=O | 24.9 µM (inactive) | 9.64 µM (inactive) | 18.9 µM (inactive) | 15.2 µM (inactive) |  | 14.3 µM (inactive) | 2.58 µM (inactive) | 22.3 µM (inactive) | 22 µM (inactive) | 46.9 µM (inactive) | 14 µM (inactive) | 24 µM (inactive) | 24.4 µM (inactive) |  |  |  |  |  |  | 
9 | O=C1c2cc3c(cc2CC1Cc1ccc2c(c1)CCC2)CCC3 (configuration not stated) |  |  | 36.7 µM (inactive) | 40 µM (inactive) | 66.1 µM (inactive) |  | 36.6 µM (inactive) | 24.2 µM (inactive) | 82.6 µM (inactive) | 57.7 µM (inactive) | 33.3 µM (inactive) | 13.4 µM (inactive) |  | 54 µM (inactive) | 32.4 µM (inactive) | 76 µM (inactive) | 51.4 µM (inactive) | 72.9 µM (inactive) | 10.9 µM (inactive) | 81.3 µM (inactive)
10 | CCOC(=O)C(O)(NC(=O)c1ccccc1F)C(F)(F)F (configuration not stated) | > 100 µM (inactive) |  | > 100 µM (inactive) | > 100 µM (inactive) | > 100 µM (inactive) |  | > 100 µM (inactive) | > 100 µM (inactive) | > 100 µM (inactive) | > 100 µM (inactive) | > 100 µM (inactive) | > 100 µM (inactive) |  | > 100 µM (inactive) | > 100 µM (inactive) | > 100 µM (inactive) | > 100 µM (inactive) | > 100 µM (inactive) | > 100 µM (inactive) | > 100 µM (inactive)
11 | Oc1nc2ccccc2c2oc3ccccc3c12 | > 100 µM (inactive) |  | > 100 µM (inactive) | > 100 µM (inactive) |  |  | > 100 µM (inactive) | > 100 µM (inactive) | > 100 µM (inactive) | 82 µM (inactive) | > 100 µM (inactive) | 6.81 µM (inactive) |  | > 100 µM (inactive) | 37.9 µM (inactive) | > 100 µM (inactive) | > 100 µM (inactive) | > 100 µM (inactive) | 16.1 µM (inactive) | > 100 µM (inactive)
12 | COc1ccc(C(=O)C2CC3(CCC2(O)c2ccc(OC)cc2)CC(=O)Nc2ccccc2C3=O)cc1 (configuration not stated) | > 100 µM (inactive) |  | 79.3 µM (inactive) | > 100 µM (inactive) | > 100 µM (inactive) |  |  | > 100 µM (inactive) | 1.55 µM (inactive) | > 100 µM (inactive) | > 100 µM (inactive) | 4.4 µM (inactive) |  | > 100 µM (inactive) | > 100 µM (inactive) | > 100 µM (inactive) | > 100 µM (inactive) | 1.44 µM (inactive) | 0.366 µM (active) | > 100 µM (inactive)
13 | COc1cc(C2c3cc4c(cc3[C@@H](Nc3ccc(Oc5ccccc5)cc3)C3COC(=O)[C@H]23)OCO4)cc(OC)c1O (some centres not stated) | 1.35 µM (inactive) | 3.95 µM (inactive) | 1.64 µM (inactive) | 1.74 µM (inactive) | 2.43 µM (inactive) | 4.36 µM (inactive) | 0.329 µM (active) | 1.56 µM (inactive) | 7.11 µM (inactive) | 1.29 µM (inactive) | 0.536 µM (active) |  | 5.26 µM (inactive) |  |  |  |  |  |  | 
14 | CCOC(=O)Cc1cnc(NC(NC(=O)CC)(C(F)(F)F)C(F)(F)F)s1 |  |  | 93.3 µM (inactive) | > 100 µM (inactive) | > 100 µM (inactive) |  | > 100 µM (inactive) | > 100 µM (inactive) |  | > 100 µM (inactive) | > 100 µM (inactive) | > 100 µM (inactive) |  | > 100 µM (inactive) | > 100 µM (inactive) | > 100 µM (inactive) | > 100 µM (inactive) |  | > 100 µM (inactive) | > 100 µM (inactive)
15 | COS(=O)c1cc(Cl)cc(Cl)c1O (configuration not stated) |  | > 100 µM (inactive) | > 100 µM (inactive) | > 100 µM (inactive) | > 100 µM (inactive) | > 100 µM (inactive) | > 100 µM (inactive) |  | > 100 µM (inactive) | > 100 µM (inactive) | > 100 µM (inactive) | 87.7 µM (inactive) | > 100 µM (inactive) |  |  |  |  |  |  | 
16 | CCOC(=O)C1=NN(c2ccc(C)cc2)C2=CC(C)=NN(C)C(=S)N21 | 24.4 µM (inactive) |  | > 100 µM (inactive) | > 100 µM (inactive) | 26.9 µM (inactive) |  | > 100 µM (inactive) |  | > 100 µM (inactive) | 12.6 µM (inactive) | 64 µM (inactive) | 23.1 µM (inactive) |  | > 100 µM (inactive) | 48.5 µM (inactive) | > 100 µM (inactive) | > 100 µM (inactive) | > 100 µM (inactive) | 26.4 µM (inactive) | > 100 µM (inactive)
